According to ChEMBL document CHEMBL4330132, “5-Keto-3-cyano-2,4-diaminothiophenes as selective maternal embryonic leucine zipper kinase inhibitors” (Bioorg Med Chem Lett, 2019):

Assays:
[1] = target: Wee1-like protein kinase (Homo sapiens) (UniProt P30291); experiment: Binding affinity to wild-type human partial length WEE1 (M291 to K575 residues) expressed in bacterial expression system assessed as residual binding level at 1 uM by Kinomescan method relative to control
[2] = target: Ephrin type-A receptor 4 (Homo sapiens) (UniProt P54764); experiment: Binding affinity to wild-type human partial length EPHA4 (T601 to R897 residues) expressed in bacterial expression system assessed as residual binding level at 1 uM by Kinomescan method relative to control
[3] = target: TRAF2 and NCK-interacting protein kinase (Homo sapiens) (UniProt Q9UKE5); experiment: Binding affinity to wild-type human partial length TNIK (D4 to K311 residues) expressed in bacterial expression system assessed as residual binding level at 1 uM by Kinomescan method relative to control
[4] = target: Tyrosine-protein kinase receptor Tie-1 (Homo sapiens) (UniProt P35590); experiment: Binding affinity to wild-type human partial length TIE1 (T819 to A1138 residues) expressed in bacterial expression system assessed as residual binding level at 1 uM by Kinomescan method relative to control
[5] = target: Aurora kinase C (Homo sapiens) (UniProt Q9UQB9); experiment: Binding affinity to wild-type human full length AURKC (M1 to S275 residues) expressed in bacterial expression system assessed as residual binding level at 1 uM by Kinomescan method relative to control
[6] = target: Cyclin-G-associated kinase (Homo sapiens) (UniProt O14976); experiment: Binding affinity to wild-type human partial length GAK (G13 to Y338 residues) expressed in bacterial expression system assessed as residual binding level at 1 uM by Kinomescan method relative to control
[7] = target: Serine/threonine-protein kinase PAK 2 (Homo sapiens) (UniProt Q13177); experiment: Binding affinity to wild-type human partial length PAK2 (P151 to R525 residues) expressed in bacterial expression system assessed as residual binding level at 1 uM by Kinomescan method relative to control
[8] = target: Protein-tyrosine kinase 2-beta (Homo sapiens) (UniProt Q14289); experiment: Binding affinity to wild-type human full length PYK2 (M1 to E967 residues) expressed in bacterial expression system assessed as residual binding level at 1 uM by Kinomescan method relative to control
[9] = target: Mitogen-activated protein kinase kinase kinase kinase 2 (Homo sapiens) (UniProt Q12851); experiment: Binding affinity to wild-type human partial length MAP4K2 (M1 to G318 residues) expressed in mammalian expression system assessed as residual binding level at 1 uM by Kinomescan method relative to control
[10] = target: Activin receptor type-2B (Homo sapiens) (UniProt Q13705); experiment: Binding affinity to wild-type human ACVR2B (H169 to D504 residues) expressed in bacterial expression system assessed as residual binding level at 1 uM by Kinomescan method relative to control
[11] = target: Phosphorylase b kinase gamma catalytic chain, liver/testis isoform (Homo sapiens) (UniProt P15735); experiment: Binding affinity to wild-type human partial length PHKG2 (M1 to W300 residues) expressed in bacterial expression system assessed as residual binding level at 1 uM by Kinomescan method relative to control
[12] = target: Mitogen-activated protein kinase 14 (Homo sapiens) (UniProt Q16539); experiment: Binding affinity to wild-type human full length p38-alpha (M1 to S360 residues) expressed in bacterial expression system assessed as residual binding level at 1 uM by Kinomescan method relative to control
[13] = target: Cyclin-dependent kinase 5 (Homo sapiens) (UniProt Q00535); experiment: Binding affinity to wild-type human full length CDK5 (M1 to P292 residues) expressed in bacterial expression system assessed as residual binding level at 1 uM by Kinomescan method relative to control
[14] = target: MAP kinase-interacting serine/threonine-protein kinase 1 (Homo sapiens) (UniProt Q9BUB5); experiment: Binding affinity to wild-type human full length MKNK1 (M1 to L424 residues) expressed in mammalian expression system assessed as residual binding level at 1 uM by Kinomescan method relative to control
[15] = system: Proto-oncogene tyrosine-protein kinase receptor Ret (Homo sapiens), P07949 [V804L]; experiment: Binding affinity to human partial length RET V804L mutant (E713 to D1014 residues) expressed in bacterial expression system assessed as residual binding level at 1 uM by Kinomescan method relative to control
[16] = target: Dual specificity protein kinase CLK2 (Homo sapiens) (UniProt P49760); experiment: Binding affinity to wild-type human partial length CLK2 (D144 to R498 residues) expressed in bacterial expression system assessed as residual binding level at 1 uM by Kinomescan method relative to control
[17] = target: Casein kinase I isoform alpha-like (Homo sapiens) (UniProt Q8N752); experiment: Binding affinity to wild-type human full length CSNK1A1L (M1 to N337 residues) expressed in bacterial expression system assessed as residual binding level at 1 uM by Kinomescan method relative to control
[18] = target: Mitogen-activated protein kinase kinase kinase 4 (Homo sapiens) (UniProt Q9Y6R4); experiment: Binding affinity to wild-type human partial length MAP3K4 (G1319 to E1608 residues) expressed in bacterial expression system assessed as residual binding level at 1 uM by Kinomescan method relative to control
[19] = system: Tyrosine-protein kinase ABL1 (Homo sapiens), P00519 [H396P]; experiment: Binding affinity to human non-phosphorylated ABL1 H396P mutant (S229 to K512 residues) expressed in mammalian expression system assessed as residual binding level at 1 uM by Kinomescan method relative to control
[20] = target: Serine/threonine-protein kinase mTOR (Homo sapiens) (UniProt P42345); experiment: Binding affinity to wild-type human partial length MTOR (L1382 to W2549 residues) expressed in mammalian expression system assessed as residual binding level at 1 uM by Kinomescan method relative to control
[21] = target: Serine/threonine-protein kinase 17A (Homo sapiens) (UniProt Q9UEE5); experiment: Binding affinity to wild-type human partial length DRAK1 (R32 to E363 residues) expressed in bacterial expression system assessed as residual binding level at 1 uM by Kinomescan method relative to control
[22] = target: Interleukin-1 receptor-associated kinase 3 (Homo sapiens) (UniProt Q9Y616); experiment: Binding affinity to wild-type human partial length IRAK3 (V147 to E596 residues) expressed in bacterial expression system assessed as residual binding level at 1 uM by Kinomescan method relative to control
[23] = target: Vascular endothelial growth factor receptor 1 (Homo sapiens) (UniProt P17948); experiment: Binding affinity to wild-type human partial length FLT1 (R781 to F1239 residues) expressed in bacterial expression system assessed as residual binding level at 1 uM by Kinomescan method relative to control
[24] = target: Inhibitor of nuclear factor kappa-B kinase subunit beta (Homo sapiens) (UniProt O14920); experiment: Binding affinity to wild-type human full length IKK-beta (M1 to S756 residues) expressed in mammalian expression system assessed as residual binding level at 1 uM by Kinomescan method relative to control
Inhibitor of nuclear factor kappa-B kinase subunit beta (Homo sapiens), sequence (O14920 whole entry, the tested form may be a part): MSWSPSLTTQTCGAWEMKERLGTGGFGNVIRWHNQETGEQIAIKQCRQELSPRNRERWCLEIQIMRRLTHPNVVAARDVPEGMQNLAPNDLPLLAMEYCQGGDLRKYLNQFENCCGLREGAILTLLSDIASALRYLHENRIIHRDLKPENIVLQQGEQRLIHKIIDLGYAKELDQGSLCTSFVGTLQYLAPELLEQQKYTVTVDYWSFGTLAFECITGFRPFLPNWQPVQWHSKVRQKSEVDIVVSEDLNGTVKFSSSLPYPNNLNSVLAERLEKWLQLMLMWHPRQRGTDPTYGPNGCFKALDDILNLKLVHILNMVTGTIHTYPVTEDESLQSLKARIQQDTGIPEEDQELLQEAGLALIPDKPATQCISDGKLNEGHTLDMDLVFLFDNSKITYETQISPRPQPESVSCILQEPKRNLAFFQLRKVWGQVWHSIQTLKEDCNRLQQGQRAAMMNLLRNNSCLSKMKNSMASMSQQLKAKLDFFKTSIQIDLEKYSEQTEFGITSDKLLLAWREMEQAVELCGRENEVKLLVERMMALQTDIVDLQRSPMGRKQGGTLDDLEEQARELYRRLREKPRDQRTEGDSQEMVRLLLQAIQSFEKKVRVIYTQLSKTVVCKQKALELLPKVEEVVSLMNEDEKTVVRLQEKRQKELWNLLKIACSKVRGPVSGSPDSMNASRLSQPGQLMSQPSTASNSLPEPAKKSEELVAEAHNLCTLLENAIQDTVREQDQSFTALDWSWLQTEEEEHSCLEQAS

Dual specificity protein kinase CLK2 (Homo sapiens), sequence (P49760 whole entry, looked up, the tested form may be a part, canonical isoform): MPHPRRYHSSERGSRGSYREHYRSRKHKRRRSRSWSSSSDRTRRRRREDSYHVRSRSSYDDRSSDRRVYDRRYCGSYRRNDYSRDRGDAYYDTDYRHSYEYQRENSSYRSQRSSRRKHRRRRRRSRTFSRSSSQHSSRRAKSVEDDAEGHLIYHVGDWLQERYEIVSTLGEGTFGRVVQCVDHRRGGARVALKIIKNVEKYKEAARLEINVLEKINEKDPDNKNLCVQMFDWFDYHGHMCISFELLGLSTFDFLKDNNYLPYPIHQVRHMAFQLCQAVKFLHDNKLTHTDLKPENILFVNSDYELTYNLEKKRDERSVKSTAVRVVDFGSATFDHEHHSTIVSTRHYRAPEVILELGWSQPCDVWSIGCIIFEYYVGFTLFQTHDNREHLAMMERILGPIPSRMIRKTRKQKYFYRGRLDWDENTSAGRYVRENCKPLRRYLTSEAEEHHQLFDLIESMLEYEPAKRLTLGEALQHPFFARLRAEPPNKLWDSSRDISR
Casein kinase I isoform alpha-like (Homo sapiens), sequence (Q8N752 whole entry, the tested form may be a part, canonical isoform): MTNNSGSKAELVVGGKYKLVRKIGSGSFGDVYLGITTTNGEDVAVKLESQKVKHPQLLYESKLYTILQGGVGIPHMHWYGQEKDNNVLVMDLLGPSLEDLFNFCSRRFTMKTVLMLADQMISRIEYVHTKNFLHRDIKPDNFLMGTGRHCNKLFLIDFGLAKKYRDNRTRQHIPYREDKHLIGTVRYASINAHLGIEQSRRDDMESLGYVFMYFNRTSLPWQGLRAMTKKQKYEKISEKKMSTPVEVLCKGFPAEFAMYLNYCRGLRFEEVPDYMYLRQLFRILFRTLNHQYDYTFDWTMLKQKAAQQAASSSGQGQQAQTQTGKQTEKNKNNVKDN
Mitogen-activated protein kinase 14 (Homo sapiens), sequence (Q16539 whole entry, the tested form may be a part): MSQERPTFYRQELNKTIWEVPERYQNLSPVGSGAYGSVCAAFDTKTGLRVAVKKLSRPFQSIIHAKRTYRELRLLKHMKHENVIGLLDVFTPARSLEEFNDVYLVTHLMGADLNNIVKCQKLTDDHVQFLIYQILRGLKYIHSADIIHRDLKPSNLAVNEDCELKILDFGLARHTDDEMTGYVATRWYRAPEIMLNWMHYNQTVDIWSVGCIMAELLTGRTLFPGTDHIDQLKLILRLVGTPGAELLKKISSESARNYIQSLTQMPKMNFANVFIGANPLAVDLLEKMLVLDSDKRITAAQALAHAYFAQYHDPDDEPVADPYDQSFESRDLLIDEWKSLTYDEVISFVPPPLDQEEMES
Protein-tyrosine kinase 2-beta (Homo sapiens), sequence (Q14289 whole entry, looked up, the tested form may be a part): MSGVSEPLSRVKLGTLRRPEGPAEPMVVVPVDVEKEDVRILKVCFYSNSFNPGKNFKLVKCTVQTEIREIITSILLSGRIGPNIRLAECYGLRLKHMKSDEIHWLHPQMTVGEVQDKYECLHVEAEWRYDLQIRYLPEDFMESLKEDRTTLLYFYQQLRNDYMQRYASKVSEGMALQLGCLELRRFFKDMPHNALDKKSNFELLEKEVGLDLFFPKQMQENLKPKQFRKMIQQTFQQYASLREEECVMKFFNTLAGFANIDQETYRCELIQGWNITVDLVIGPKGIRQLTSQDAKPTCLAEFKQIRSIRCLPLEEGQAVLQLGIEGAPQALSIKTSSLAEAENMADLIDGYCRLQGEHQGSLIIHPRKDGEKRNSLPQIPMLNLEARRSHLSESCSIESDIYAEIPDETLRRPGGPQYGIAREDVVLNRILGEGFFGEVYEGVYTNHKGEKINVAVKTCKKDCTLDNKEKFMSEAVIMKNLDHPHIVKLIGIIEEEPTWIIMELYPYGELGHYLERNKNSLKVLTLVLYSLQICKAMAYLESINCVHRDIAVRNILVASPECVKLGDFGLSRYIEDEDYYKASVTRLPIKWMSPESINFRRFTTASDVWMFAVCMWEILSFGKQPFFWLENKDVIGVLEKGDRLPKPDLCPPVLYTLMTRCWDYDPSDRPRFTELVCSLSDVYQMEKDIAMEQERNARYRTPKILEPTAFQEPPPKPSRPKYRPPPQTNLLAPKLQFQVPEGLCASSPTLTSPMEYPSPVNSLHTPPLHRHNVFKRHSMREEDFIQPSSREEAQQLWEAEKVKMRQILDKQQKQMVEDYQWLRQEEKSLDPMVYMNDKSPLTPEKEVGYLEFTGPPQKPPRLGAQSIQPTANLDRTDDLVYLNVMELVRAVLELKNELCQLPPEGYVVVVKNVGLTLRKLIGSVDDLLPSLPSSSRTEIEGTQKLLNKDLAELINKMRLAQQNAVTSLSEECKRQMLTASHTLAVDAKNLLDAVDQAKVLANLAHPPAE
Phosphorylase b kinase gamma catalytic chain, liver/testis isoform (Homo sapiens), sequence (P15735 whole entry, the tested form may be a part, canonical isoform): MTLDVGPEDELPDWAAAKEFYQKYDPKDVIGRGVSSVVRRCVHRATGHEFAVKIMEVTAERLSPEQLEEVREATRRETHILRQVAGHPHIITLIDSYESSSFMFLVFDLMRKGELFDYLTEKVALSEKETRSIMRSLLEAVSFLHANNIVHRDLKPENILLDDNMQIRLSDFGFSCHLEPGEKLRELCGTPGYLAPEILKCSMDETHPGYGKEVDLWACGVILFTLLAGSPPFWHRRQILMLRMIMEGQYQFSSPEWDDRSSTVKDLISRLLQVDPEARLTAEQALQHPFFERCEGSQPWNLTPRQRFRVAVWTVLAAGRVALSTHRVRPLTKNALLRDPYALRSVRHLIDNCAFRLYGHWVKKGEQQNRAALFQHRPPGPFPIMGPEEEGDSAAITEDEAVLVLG
Proto-oncogene tyrosine-protein kinase receptor Ret (Homo sapiens), P07949 [V804L], sequence (P07949 whole entry V804L, the tested form may be a part): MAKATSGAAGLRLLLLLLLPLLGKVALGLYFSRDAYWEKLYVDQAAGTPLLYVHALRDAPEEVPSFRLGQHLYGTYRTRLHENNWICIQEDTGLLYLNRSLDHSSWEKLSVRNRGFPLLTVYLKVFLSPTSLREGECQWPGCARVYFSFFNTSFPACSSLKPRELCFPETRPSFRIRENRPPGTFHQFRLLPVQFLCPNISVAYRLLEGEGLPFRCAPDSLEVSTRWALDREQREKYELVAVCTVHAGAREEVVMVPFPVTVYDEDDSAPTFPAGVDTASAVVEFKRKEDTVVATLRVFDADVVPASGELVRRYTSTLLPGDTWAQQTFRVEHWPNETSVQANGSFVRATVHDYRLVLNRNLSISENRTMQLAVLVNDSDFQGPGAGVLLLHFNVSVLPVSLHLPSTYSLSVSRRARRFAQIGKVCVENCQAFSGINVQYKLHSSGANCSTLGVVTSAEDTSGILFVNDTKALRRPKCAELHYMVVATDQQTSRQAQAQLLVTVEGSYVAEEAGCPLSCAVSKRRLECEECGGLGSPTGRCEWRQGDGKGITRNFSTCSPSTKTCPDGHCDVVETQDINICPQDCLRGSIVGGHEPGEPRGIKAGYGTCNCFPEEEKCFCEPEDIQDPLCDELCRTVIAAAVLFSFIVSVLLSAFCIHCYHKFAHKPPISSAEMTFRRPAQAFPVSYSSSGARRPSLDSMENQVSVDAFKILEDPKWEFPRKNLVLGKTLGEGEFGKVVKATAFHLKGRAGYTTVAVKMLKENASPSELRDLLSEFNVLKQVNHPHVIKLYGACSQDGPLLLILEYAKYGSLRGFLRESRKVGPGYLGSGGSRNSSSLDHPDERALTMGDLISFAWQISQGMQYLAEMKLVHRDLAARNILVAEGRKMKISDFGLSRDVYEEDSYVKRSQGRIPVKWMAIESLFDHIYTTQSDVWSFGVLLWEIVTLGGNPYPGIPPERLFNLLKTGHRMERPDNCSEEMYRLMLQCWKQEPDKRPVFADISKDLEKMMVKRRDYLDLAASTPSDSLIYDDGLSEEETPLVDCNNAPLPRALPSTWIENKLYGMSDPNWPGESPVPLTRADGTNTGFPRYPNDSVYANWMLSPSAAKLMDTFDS
Serine/threonine-protein kinase PAK 2 (Homo sapiens), sequence (Q13177 whole entry, the tested form may be a part): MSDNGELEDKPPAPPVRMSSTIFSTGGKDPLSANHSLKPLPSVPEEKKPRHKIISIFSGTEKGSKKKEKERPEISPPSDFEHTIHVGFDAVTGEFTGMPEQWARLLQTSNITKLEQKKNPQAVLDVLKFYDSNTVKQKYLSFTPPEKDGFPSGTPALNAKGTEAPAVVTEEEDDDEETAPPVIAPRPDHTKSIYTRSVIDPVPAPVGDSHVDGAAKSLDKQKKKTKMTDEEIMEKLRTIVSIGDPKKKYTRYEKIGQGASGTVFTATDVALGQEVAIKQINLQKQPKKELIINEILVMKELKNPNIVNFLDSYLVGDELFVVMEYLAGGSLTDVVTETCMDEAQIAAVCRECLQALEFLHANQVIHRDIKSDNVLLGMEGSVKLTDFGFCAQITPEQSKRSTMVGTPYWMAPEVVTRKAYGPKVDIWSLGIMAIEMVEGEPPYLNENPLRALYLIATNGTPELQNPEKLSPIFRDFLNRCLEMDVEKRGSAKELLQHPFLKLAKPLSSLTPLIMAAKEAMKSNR

Compound CC(C)Nc1sc(C(=O)c2ccc(Cl)s2)c(N)c1C#N has an Activity [1] of 94%, an Activity [2] of 93% and an Activity [3] of 62%. The Activity [4] was 69%, the Activity [5] was 100% and the Activity [6] was 24%. The Activity [7] was 75%, the Activity [8] was 100% and the Activity [9] was 100%. It also gave an Activity [10] of 92%, an Activity [11] of 72% and an Activity [12] of 95%. For the same compound, the Activity [13] was 100%, the Activity [14] was 100% and the Activity [15] was 97%. For the same compound, the Activity [16] was 60%, the Activity [17] was 91% and the Activity [18] was 100%. It also gave an Activity [19] of 100%, an Activity [20] of 100% and an Activity [21] of 61%. It also gave an Activity [22] of 86%, an Activity [23] of 76% and an Activity [24] of 100%.
